The values that follow are results of earlier work, collected in patent US5385907A, “Ointments containing FK-506 or derivatives thereof” (priority 1990, dated 1995).

For the data set the following is noted: dissolved in ethanol (EP-A-315978).

SMILES strings stand for the structures.

As to `C=CCC1C=C(C)CC(C)CC(OC)C2OC(O)(C(=O)C(=O)N3CCCCC3C(=O)OC(C(C)=CC3CCC(O)C(OC)C3)C(C)C(O)CC1=O)C(C)CC2OC` (stereo not shown) [FK 506 substance, 17-allyl-1,14-dihydroxy-12-[2-(4-hydroxy-3-methoxycyclohexyl)-1-methylvinyl]-23,25-dimethoxy-13,19,21,27-tetramethyl-11,28-dioxa-4-azatricyclo[22.3.1.0^4,9]octacos-18-ene-2,3,10,16-tetraone], the inflammatory inhibition entry is given as “effective against inflammatory inhibition”.
